pEC50: −log10 of the molar value. Some results are limits rather than exact numbers.

In one data set the test system is HBV. Put plainly: Anti-HBV activity in HepG2.2.15 cells (HBV DNA in culture medium by qPCR). In kind it is cell-based. The note with it: Hepatitis B virus, HepG2.2.15, 144 h, HepG2.2.15 cells, 6 days treatment, HBV DNA in culture medium quantified by real-time PCR; read-out: EC50. Put shortly:
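HepG2.2.15 cells in 2% FBS medium at 37 °C were treated with compounds for 6 days, with medium and compound refreshed at day 3; 1:3 dilutions, 8 concentrations in triplicate, top 10 or 1 uM. HBV DNA in culture medium quantified by qPCR to derive EC50; CC50 from parallel plates (top 100 uM).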

Data set [1] in a line: Cytotoxicity determination in HepG2.2.15 cells (CCK-8 cell viability). It is filed as cell-based. Conditions: human, 6 days treatment, CCK-8 assay, highest concentration 100 uM. Put shortly:
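HepG2.2.15 cells seeded at 5,000 cells/well in 2% FBS medium, exposed 6 days to compounds (8-point 1:3 dilutions from 100 uM, triplicate), refreshed at day 3. Viability read by CCK-8 after 2.5 h at 37° C, absorbance 450 nm with 630 nm reference; CC50 calculated.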
On the technique in general: Tetrazolium assays rely on reduction of a dye to a coloured formazan, in cell work by metabolically active cells.

On to `CCOC(=O)C1=C(CN2CC(F)(F)[C@@H]3[C@H]2CN(C)N3CCC(C)(C)C(=O)O)NC(c2nccs2)=N[C@@H]1c1ccc(F)nc1C` (single isomer, unassigned) [Compound 96], for which the pEC50 – broadly, the negative decadic logarithm of the EC50, by convention in mol/L – with HBV is 7.30. Besides, in data set [1], the CC50 (in general, the concentration at which the toxic effect on the cells reaches its halfway point) at 6 days was more than 100 µM.

As for `CCOC(=O)C1=C(CN2CC(F)(F)[C@@H]3[C@H]2CN(C)N3CC(C)(C)C(=O)O)NC(c2nccs2)=N[C@@H]1c1ccc(F)nc1C` (single isomer, unassigned) [Compound 97], the negative logarithm of the EC50 (pEC50) with HBV is 7.11. The 50% cytotoxic concentration (CC50) at 6 days in data set [1] is more than 100 µM.

Regarding `CCOC(=O)C1=C(CN2CC(F)(F)[C@@H]3[C@H]2CN(C)N3CC2CC(C)(C(=O)O)C2)NC(c2nccs2)=N[C@H]1c1cccc(F)c1C` (single isomer, unassigned) [Compound 98], the pEC50 in the data set with HBV was 7.85. In data set [1], this molecule yielded a CC50 at 6 days of more than 6.2 µM.

For the molecule `CCOC(=O)C1=C(CN2CC(F)(F)[C@@H]3[C@H]2CN(C)N3CCOC(C)(C)C(=O)O)NC(c2nccs2)=N[C@H]1c1cccc(F)c1C` (single isomer, unassigned) [Compound 99], the pEC50 in the data set with HBV is 6.81. Moreover, the CC50 at 6 days in data set [1] amounted to 25 µM.

In the case of `[2H]C([2H])([2H])N1C[C@@H]2[C@H](N1CCC(C)(C)C(=O)O)C(F)(F)CN2CC1=C(C(=O)OCC)[C@H](c2cccc(F)c2C)N=C(c2nccs2)N1` (single isomer, unassigned) [Compound 100], in the data set with HBV, the negative logarithm of the EC50 (pEC50) is 7.96. Also, in data set [1], the cytotoxic concentration (CC50) at 6 days stood at 12 µM.

Turning to `COC(=O)C1=C(CN2CC(F)(F)[C@@H]3[C@H]2CN(C)N3CCC(C)(C)C(=O)O)NC(c2nccs2)=N[C@H]1c1ccc(F)c(F)c1C` (single isomer, unassigned) [Compound 101, 4-((cis)-4-((6-(3,4-Difluoro-2-methylphenyl)-5-(methoxycarbonyl)-2-(thiazol-2-yl)-3,6-dihydropyrimidin-4-yl)methyl)-6,6-difluoro-2-methylhexahydropyrrolo[3,2-c]pyrazol-1(2H)-yl)-2,2-dimethylbutanoic acid], in the data set on HBV, the pEC50 is 7.60. In data set [1], this molecule came in with a CC50 at 6 days of more than 3.1 µM.

In the case of `CCOC(=O)C1=C(CN2CC(F)(F)[C@@H]3[C@H]2CN(C)N3CCC(C)(C)C(=O)O)NC(c2nccs2)=N[C@H]1c1cccc(F)c1Cl` (single isomer, unassigned) [Compound 102, 4-((cis)-4-((6-(2-chloro-3-fluorophenyl)-5-(ethoxycarbonyl)-2-(thiazol-2-yl)-3,6-dihydropyrimidin-4-yl)methyl)-6,6-difluoro-2-methylhexahydropyrrolo[3,2-c]pyrazol-1(2H)-yl)-2,2-dimethylbutanoic acid], in the data set with HBV, the negative logarithm of the EC50 (pEC50) was 7.87. This molecule came in with a cytotoxic concentration (CC50) at 6 days in data set [1] of 53.8 µM.

With `CCOC(=O)C1=C(CN2CC(F)(F)[C@@H]3NCC[C@@H]32)NC(c2nccs2)=N[C@H]1c1cccc(F)c1C` (single isomer, unassigned) [Compound 103], the pEC50 in the data set on HBV is 7.27. The midpoint of cytotoxicity in data set [1], the CC50 at 6 days, lay at 19.8 µM.

With `CCOC(=O)C1=C(CN2CC(F)(F)[C@H]3[C@@H]2CCN3[C@H]2CC[C@@H](C(=O)O)CC2)NC(c2nccs2)=N[C@H]1c1cccc(F)c1C` (single isomer, unassigned) [Compound 104A], the negative-log EC50 (pEC50) in the data set with HBV was 7.98. Also, in data set [1], the 50% cytotoxic concentration (CC50) at 6 days worked out at 16.1 µM.

With `CCOC(=O)C1=C(CN2CC(F)(F)[C@H]3[C@@H]2CCN3C2CCC(C(=O)O)CC2)NC(c2nccs2)=N[C@H]1c1cccc(F)c1C` (single isomer, unassigned) [Compound 104B], the negative logarithm of the EC50 (pEC50) with HBV is 8.10. Moreover, in data set [1], the CC50 at 6 days was more than 6.2 µM.

Consider `CCOC(=O)C1=C(CN2CC(F)(F)[C@H]3[C@@H]2CCN3[C@H](C)CC(C)(C)C(=O)O)NC(c2nccs2)=N[C@H]1c1cccc(F)c1C` (single isomer, unassigned) [Compound 105A], for which the pEC50 in the data set on HBV was 7.98. This molecule also came in with a CC50 at 6 days in data set [1] of 15.2 µM.

In the case of `CCOC(=O)C1=C(CN2CC(F)(F)[C@H]3[C@@H]2CCN3[C@@H](C)CC(C)(C)C(=O)O)NC(c2nccs2)=N[C@H]1c1cccc(F)c1C` (single isomer, unassigned) [Compound 105B], in the data set with HBV, the pEC50 was 6.97. The molecule also had a CC50 at 6 days in data set [1] of 94.3 µM.

(Values after patent US20230083012A1, “DIHYDROPYRIMIDINE DERIVATIVES AND USES THEREOF IN THE TREATMENT OF HBV INFECTION OR OF HBV-INDUCED DISEASES” (priority 2019, published 2023).)
